# Calls of active or inactive are those of the source.
# Experiments:
# X-box-binding protein 1 = X-box-binding protein 1 (Homo sapiens, UniProt P17861); format: functional, Cricetulus griseus;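 also: confirmatory dose-response counter-screen serving a CHOP assay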
# [1] = biological target: DNA damage-inducible transcript 3 protein (Mus musculus, UniProt P35639); format: functional, Cricetulus griseus
# HEK293 [2] = test: cells; format: functional, cell-based; conditions: Homo sapiens
# HEK293 [3] = test: NOD2 signaling inhibitors in MDP-stimulated cells, cell-based, uHTS, luminescence (AID 2001); format: functional; conditions: Homo sapiens
# Streptokinase A = biological target: T1, Streptokinase A (Streptococcus pyogenes serotype M1, UniProt P10520); test: viability-normalized secreted streptokinase activity reduction – plasminogen activation absorbance, OD405, dose response (AID 1914); format: functional, Streptococcus pyogenes M1 GAS;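 also: secreted streptokinase activity via plasminogen activation per viability signal from cell pellet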
# T1 sequence (P10520 whole entry): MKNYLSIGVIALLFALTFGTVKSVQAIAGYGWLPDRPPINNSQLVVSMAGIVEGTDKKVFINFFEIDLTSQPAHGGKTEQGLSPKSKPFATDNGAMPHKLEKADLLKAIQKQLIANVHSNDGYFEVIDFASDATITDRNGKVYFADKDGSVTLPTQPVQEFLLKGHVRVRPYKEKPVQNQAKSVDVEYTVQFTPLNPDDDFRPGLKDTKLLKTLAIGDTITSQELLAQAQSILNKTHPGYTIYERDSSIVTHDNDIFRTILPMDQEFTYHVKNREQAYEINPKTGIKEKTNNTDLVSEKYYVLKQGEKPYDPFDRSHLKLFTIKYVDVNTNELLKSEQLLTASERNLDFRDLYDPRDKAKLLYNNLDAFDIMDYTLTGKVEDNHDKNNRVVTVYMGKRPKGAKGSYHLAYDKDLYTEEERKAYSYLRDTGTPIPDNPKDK
# Streptococcus = test: GAS UMAA2166 growth inhibition – luminescence, BacTiterGlo, counter-screen for streptokinase expression inhibitor project, dose response (AID 1915); format: functional, organism-based;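 also: potency for reduction of bacterial viability or growth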
# HEK293 [4] = test: cells; format: functional, cell-based; conditions: Homo sapiens; remark: listed apart in the source
# HEK293 [5] = test: cells; format: functional, cell-based; conditions: Homo sapiens; remark: listed apart in the source
# HEK293 [6] = test: inhibition of NOD1-driven NF-kB reporter – cell-based, luminescence, uHTS, primary screen (AID 1578); format: functional; conditions: Homo sapiens
# [7] = test system: Streptococcus sp. 'group A'; test: Streptococcus pyogenes SK(-)GAS viability under kanamycin – luminescence, BacTiterGlo, confirmation, counter-screen for streptokinase expression inhibitor project, dose response (AID 1900); format: functional, organism-based; conditions: read-out: EC50
# [8] = biological target: T2, Short transient receptor potential channel 4 (Mus musculus, UniProt Q9QUQ5); test: calcium entry via TRPC4 opening agents – cell-based, HEK293 TRPC4/mu-opioid, Fluo-4 calcium, dose response (AID 434937); format: functional
# T2 sequence (Q9QUQ5 whole entry): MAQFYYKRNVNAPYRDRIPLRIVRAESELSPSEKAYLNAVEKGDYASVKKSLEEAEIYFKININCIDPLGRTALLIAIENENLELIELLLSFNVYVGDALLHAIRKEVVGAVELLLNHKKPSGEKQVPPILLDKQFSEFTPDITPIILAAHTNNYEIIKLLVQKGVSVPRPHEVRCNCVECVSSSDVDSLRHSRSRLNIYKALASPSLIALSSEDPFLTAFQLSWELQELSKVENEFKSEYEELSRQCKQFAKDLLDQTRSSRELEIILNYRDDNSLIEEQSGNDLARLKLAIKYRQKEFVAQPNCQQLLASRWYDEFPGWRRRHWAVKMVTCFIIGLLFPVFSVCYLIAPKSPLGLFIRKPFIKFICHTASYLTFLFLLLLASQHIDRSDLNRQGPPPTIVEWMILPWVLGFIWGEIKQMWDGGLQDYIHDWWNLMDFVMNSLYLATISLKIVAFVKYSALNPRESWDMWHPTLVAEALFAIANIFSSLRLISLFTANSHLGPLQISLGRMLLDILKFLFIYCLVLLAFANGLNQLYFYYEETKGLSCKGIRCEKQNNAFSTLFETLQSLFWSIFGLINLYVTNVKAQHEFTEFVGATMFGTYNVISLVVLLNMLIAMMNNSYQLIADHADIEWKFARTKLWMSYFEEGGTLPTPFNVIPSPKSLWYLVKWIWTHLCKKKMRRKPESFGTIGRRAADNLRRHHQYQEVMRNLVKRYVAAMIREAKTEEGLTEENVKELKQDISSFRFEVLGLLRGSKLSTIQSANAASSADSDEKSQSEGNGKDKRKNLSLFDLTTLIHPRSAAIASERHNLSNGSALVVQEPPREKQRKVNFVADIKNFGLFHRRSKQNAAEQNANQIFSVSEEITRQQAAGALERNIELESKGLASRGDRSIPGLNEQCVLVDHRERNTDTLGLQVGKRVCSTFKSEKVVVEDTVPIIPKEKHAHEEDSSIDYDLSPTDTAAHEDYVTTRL
# [9] = viability of uninfected HEp-2 cells – cell-based, HTS, cytotoxicity control for RSV inhibitor project, dose response (AID 2410); format: functional; conditions: human respiratory syncytial virus
# [10] = biological target: Nucleotide-binding oligomerization domain-containing protein 2 (Homo sapiens, UniProt Q9HC29); test: inhibition of NOD2-driven NF-kB reporter – cell-based, luminescence, uHTS, HEK293 (AID 1566); format: functional
# Sequence of Nucleotide-binding oligomerization domain-containing protein 2 (Q9HC29 whole entry, the tested form may be a part): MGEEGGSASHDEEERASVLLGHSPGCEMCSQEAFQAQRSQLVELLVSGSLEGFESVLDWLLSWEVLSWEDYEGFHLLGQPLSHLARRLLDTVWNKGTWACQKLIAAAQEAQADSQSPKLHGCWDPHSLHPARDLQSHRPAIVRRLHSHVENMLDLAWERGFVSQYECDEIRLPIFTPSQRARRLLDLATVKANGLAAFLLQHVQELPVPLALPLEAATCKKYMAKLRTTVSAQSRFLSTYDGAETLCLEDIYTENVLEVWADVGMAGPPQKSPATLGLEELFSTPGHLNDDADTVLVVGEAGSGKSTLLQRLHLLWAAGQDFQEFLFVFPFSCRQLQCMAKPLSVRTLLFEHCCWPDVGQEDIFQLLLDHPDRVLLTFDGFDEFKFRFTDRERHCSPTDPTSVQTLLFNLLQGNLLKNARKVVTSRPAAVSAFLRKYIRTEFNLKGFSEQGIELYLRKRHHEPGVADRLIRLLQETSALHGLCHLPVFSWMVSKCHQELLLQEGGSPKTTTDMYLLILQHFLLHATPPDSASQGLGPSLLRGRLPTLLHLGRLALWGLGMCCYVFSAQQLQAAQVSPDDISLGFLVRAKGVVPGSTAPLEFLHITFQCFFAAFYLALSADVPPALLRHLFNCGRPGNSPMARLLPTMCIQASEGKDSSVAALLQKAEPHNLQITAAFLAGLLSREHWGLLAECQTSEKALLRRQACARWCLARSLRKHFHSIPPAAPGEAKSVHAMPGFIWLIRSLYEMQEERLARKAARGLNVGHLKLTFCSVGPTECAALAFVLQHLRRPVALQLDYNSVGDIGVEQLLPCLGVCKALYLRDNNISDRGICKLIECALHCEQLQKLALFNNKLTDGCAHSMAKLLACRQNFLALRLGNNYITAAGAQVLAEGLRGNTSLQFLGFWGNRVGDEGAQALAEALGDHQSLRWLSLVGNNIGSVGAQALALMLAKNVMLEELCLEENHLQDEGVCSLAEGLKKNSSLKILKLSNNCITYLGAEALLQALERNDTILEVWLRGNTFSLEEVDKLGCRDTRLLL
# [11] = biological target: T3, Alkaline phosphatase, tissue-nonspecific isozyme (Homo sapiens, UniProt P05186); test: potency against alkaline phosphatase TNAP – biochemical, luminescent, dose response, SAR follow-up (AID 1056)
# T3 sequence (P05186 whole entry): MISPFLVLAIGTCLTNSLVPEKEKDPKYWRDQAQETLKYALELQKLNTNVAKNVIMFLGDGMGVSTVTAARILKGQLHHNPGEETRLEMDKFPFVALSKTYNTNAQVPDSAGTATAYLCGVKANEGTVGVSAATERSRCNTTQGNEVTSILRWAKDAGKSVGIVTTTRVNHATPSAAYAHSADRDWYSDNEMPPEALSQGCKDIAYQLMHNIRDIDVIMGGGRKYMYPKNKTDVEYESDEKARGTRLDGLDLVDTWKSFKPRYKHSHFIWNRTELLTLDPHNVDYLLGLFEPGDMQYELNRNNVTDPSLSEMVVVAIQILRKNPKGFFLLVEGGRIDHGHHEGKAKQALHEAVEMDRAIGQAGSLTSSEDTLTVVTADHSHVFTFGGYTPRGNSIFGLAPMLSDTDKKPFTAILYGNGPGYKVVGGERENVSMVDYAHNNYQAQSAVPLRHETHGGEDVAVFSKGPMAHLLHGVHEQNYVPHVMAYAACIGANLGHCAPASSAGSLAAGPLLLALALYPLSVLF
# [12] = biological target: Glyceraldehyde-3-phosphate dehydrogenase (Homo sapiens, UniProt P04406)
# Sequence of Glyceraldehyde-3-phosphate dehydrogenase (P04406 whole entry): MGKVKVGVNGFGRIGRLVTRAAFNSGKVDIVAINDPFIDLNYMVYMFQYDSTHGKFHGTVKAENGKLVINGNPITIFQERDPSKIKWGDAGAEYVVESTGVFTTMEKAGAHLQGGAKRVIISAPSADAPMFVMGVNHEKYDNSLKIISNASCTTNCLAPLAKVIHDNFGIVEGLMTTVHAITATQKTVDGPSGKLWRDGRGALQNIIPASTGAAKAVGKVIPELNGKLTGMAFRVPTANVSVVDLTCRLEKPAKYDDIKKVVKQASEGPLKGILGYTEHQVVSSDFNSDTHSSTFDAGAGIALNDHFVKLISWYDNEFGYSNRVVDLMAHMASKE
# [13] = biological target: Alkaline phosphatase, placental type (Homo sapiens, UniProt P05187); test: human placental alkaline phosphatase inhibition – biochemical, luminescence, confirmation (AID 1512); format: functional
# Sequence of Alkaline phosphatase, placental type (P05187 whole entry): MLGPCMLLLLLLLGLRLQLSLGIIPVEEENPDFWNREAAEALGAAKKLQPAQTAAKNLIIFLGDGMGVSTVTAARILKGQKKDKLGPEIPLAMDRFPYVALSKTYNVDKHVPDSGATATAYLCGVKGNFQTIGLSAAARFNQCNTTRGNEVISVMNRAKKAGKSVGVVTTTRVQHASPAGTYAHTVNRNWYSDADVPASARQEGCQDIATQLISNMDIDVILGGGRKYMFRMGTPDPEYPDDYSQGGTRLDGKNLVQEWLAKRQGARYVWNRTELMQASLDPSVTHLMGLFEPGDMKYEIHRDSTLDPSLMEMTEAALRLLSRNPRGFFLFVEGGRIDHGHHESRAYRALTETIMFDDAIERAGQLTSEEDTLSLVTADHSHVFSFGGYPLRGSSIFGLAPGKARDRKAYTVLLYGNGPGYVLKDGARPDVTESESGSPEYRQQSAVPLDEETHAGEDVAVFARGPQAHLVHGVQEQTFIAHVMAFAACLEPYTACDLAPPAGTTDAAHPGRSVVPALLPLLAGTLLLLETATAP
# CAAX prenyl protease 2 [14] = biological target: T4, CAAX prenyl protease 2 (Homo sapiens, UniProt Q9Y256); test: inhibition of Ras-converting CAAX protease Rce1 – biochemical, yeast membranes, quenched-peptide fluorescence, cherry-pick, dose response (AID 588849)
# T4 sequence (Q9Y256 whole entry): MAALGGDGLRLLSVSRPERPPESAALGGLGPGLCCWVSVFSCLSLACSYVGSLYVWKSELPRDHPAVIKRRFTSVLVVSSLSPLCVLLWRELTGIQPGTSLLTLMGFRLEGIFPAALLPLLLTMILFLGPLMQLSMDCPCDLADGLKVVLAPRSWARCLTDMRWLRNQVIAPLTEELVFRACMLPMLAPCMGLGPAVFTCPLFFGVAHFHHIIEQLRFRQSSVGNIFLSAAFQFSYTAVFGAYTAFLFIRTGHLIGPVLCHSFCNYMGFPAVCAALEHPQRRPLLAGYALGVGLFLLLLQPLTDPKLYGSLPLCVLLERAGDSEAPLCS
# Trypsin = Trypsin (Sus scrofa, UniProt P00761); test: trypsin protease activity blockade – biochemical, quenched peptide fluorescence, cherry-pick, selectivity assay for Rce1 protease inhibitor project, dose response (AID 488789)
# Sequence of Trypsin (P00761 whole entry): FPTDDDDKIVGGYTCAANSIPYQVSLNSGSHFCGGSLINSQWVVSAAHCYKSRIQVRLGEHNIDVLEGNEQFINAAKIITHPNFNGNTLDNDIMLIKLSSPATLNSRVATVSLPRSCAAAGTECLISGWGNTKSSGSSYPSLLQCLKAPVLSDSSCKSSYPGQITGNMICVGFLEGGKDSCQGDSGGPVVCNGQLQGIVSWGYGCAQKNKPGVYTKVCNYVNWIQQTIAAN
# CAAX prenyl protease 2 [15] = biological target: CAAX prenyl protease 2 (Saccharomyces cerevisiae S288c, UniProt Q03530); format: biochemical
# Sequence of CAAX prenyl protease 2 (Saccharomyces cerevisiae S288c, UniProt Q03530) (Q03530 whole entry): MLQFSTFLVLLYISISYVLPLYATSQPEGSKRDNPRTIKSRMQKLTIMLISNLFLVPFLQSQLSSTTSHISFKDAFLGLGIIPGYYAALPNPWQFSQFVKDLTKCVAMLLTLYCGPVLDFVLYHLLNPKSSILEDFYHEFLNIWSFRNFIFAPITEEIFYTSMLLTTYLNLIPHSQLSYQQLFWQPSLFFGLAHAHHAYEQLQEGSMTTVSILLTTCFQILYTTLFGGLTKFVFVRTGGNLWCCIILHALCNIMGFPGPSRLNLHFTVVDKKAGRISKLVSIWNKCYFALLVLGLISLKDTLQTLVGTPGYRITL
# Protein RecA = biological target: T5, Protein RecA (Mycobacterium tuberculosis, UniProt P9WHJ3); test: Fluorescence Cell-Free Homogeneous Dose Retest to Identify Inhibitors of RecA-Intein Splicing Activity. [Related pubchem assays (depositor defined):AID2097, AID2223, AID489010, AID492950]; format: functional
# T5 sequence (P9WHJ3 whole entry): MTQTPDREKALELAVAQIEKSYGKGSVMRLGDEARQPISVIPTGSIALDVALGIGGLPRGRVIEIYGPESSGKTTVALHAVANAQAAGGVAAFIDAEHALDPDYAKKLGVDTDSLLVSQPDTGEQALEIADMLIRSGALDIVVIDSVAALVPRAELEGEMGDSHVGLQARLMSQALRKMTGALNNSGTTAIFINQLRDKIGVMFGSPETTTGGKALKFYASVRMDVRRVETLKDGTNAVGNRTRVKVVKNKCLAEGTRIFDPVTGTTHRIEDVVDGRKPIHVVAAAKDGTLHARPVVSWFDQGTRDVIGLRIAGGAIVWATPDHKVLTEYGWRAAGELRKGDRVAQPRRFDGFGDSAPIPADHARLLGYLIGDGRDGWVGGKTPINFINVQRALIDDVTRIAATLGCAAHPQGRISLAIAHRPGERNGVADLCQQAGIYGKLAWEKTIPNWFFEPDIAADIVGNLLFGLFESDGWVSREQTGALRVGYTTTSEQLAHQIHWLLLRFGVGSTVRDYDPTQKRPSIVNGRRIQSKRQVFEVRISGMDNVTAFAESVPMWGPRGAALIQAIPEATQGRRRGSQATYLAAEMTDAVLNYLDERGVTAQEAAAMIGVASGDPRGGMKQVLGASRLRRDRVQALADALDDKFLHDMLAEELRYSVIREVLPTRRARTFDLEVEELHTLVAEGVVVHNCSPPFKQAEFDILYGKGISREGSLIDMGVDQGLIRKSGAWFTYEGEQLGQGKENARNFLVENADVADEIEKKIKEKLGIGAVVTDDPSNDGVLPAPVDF
# cells = format: functional
# T-cell = test: loss of vesicle association with mouse CD8+ T cells – mouse 2C CD8+ T cells, flow cytometry, dose response (AID 485284); format: functional
# [16] = biological target: T6, Replicative DNA helicase DnaB (Mycobacterium tuberculosis, UniProt P9WMR3); test: DnaB intein splicing inhibitors, dose response, biochemical, cell-free fluorescence (AID 449749); format: functional
# T6 sequence (P9WMR3 whole entry): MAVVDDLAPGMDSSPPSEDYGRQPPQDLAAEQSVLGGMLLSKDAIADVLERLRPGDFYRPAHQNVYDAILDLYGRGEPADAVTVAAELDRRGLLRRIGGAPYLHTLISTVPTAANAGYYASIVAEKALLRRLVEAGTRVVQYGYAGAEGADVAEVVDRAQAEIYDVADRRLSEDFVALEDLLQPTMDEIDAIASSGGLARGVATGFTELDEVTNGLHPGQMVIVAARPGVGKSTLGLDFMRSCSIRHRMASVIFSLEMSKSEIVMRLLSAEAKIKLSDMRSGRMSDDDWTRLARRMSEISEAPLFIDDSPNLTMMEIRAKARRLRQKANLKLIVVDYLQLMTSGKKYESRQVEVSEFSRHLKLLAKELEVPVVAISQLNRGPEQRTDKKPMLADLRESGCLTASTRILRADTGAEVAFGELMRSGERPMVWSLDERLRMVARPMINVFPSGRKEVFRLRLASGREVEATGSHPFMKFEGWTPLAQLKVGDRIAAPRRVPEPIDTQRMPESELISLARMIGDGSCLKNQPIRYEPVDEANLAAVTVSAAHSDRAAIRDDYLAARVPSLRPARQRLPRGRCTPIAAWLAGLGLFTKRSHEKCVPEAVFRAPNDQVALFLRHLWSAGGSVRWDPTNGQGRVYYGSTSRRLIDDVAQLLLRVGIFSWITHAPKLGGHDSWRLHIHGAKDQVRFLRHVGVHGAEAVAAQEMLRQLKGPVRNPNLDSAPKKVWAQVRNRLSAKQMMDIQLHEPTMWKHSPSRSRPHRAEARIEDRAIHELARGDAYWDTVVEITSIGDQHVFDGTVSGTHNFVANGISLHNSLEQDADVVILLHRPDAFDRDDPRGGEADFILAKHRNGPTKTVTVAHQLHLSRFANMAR
# Sequence of DNA damage-inducible transcript 3 protein (P35639 whole entry): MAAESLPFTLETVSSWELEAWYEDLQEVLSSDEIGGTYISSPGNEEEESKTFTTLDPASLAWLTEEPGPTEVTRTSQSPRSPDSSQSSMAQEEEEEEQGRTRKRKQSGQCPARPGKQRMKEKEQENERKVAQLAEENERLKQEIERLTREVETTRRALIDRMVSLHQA
# Sequence of X-box-binding protein 1 (P17861 whole entry): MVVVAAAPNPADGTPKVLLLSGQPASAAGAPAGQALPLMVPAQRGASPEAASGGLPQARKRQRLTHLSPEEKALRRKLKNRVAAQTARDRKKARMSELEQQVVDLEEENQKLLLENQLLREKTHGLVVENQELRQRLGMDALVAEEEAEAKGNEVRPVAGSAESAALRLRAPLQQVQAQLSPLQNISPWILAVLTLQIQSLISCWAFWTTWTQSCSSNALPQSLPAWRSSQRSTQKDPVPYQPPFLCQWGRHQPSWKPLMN
structure (smiles),measurement,setting,value
CC1=C(C(=O)Nc2ccc(C)cc2C)C(c2cccc(Cl)c2)n2nc(C(=O)OC(C)C)nc2N1 (centres undefined),Absolute IC50 (XBP1),X-box-binding protein 1,10 µM
same,Absolute IC50 (CHOP),[1],10 µM
Cc1csc2c(N3CCN(C(=O)Nc4ccc(Cl)c(Cl)c4)CC3)ncnc12,IC50,HEK293 [2],4.78 µM (active)
same,IC50,HEK293 [3],3.23 µM (active)
same,EC50,Streptokinase A,14.8 µM (active)
same,EC50,Streptococcus,57.1 µM (active)
same,IC50,HEK293 [4],> 20 µM (inactive)
same,IC50,HEK293 [5],8.45 µM (active)
same,EC50,HEK293 [6],4.76 µM (active)
same,EC50,[7],3.4 µM (active)
same,EC50,[8],1.88 µM (active)
same,CC50,[9],43.7 µM (active)
same,EC50,[10],5 µM (active)
CCCc1n[nH]c2c1C(=O)CC(C)(C)C2,IC50,[11],14.4 µM (active)
same,IC50,[12],> 100 µM (not active)
same,IC50,[13],> 100 µM (inactive)
CCn1c(=O)c(-c2ccccc2)c(O)c2ccccc21,AC50,CAAX prenyl protease 2 [14],13.9 µM (active)
same,AC50,Trypsin,7.88 µM (active)
same,AC50,CAAX prenyl protease 2 [15],11.2 µM (active)
COc1ccc(NC(=O)Nc2ccc(O)c3ccccc23)cc1,EC50,Protein RecA,0.722 µM (active)
same,IC50,cells,> 50 µM (active)
same,EC50,T-cell,12.5 µM (active)
same,AC50,[16],18 µM (active)
Cc1ccc(-c2nc3ccc(C)cn3c2CC(=O)N(C)C)cc1,AC50,CAAX prenyl protease 2 [15],16.8 µM (active)

# Reference: ChEMBL document CHEMBL1201862, “PubChem BioAssay data set” (2004)
